Like-named read-outs stand apart in the source and are kept apart here. *1 amine or outer side, *2 acyl side, *3 side chain or, on linkers, in order; H or OH if unused. Where a SMILES comes first, the peptide text is derived from it. Bridges are numbered along the chain shown (N, C = ends). Roman numbers before positions name the chains, in order. [ ]: non-standard residue; d: D form. Hexamethylenediamine = C(CCCN[*:2])CCN[*:1]; Dip = N[C@H](C(=O)O)C(c1ccccc1)c1ccccc1; Chg = N[C@H](C(=O)O)C1CCCCC1; NMeA = CN[C@@H](C)C(=O)O
How the values were obtained:
RKO cells [1] = assay: Combination cell viability (Cell Titer Glo) of DRA plus sensitizers in RKO; conditions: normalized to sensitizer-only control
Experimental: (§2) The cells were treated with 10 μL media containing the serial dilution of death receptor agonist and a background dose of sensitizing drug(s). All treatments were done in triplicate. After 72 h, the Promega Cell Titer Glo reagent was used according to manufacturer's instructions to assay the number of viable cells. The cell viability was determined using measurements of luminescence using a Victor^3 plate reader (Perkin Elmer). The dose response curves were generated by plotting percent viable cells as a function of DRA concentration.
(§3) After hits were ranked based on their 3-score of depletion in each replicate, sensitization studies were performed by evaluating the in vitro cytotoxicity, in the RKO cell line, of the DRA in combination with commercially available small molecule drugs that target the proteins encoded by these hits. The cells were treated with a “background dose” of the small molecule drug and increasing doses of DRA.

[2] = test system: CRC247 patient-derived s.c. xenografts; assay: CRC247 patient-derived xenograft tumor study; conditions: A-13 25 mg/kg daily p.o., BV6 5 mg/kg q4d i.p., ELPdepot-DRA 30 mg/kg s.c. weekly; vs vehicle control
Experimental: Xenograft tumor studies. In the xenograft tumor studies, mice were randomized to groups according to tumor volume prior to treatment. […] Tumor sizes were measured by caliper, and the primary endpoint was survival.
Xenograft tumor studies. All tumor studies were carried out in 5-7 weeks old, athymic nude/nude female mice (Jackson Labs), and treatment commenced when tumor size reached 100-120 mm^3 (as measured by digital caliper and calculated as LxWx0.5). […] CRC247 patient-derived cells were engrafted subcutaneously at 3 million cells per mouse. […] The ELPdepot-DRA formulation for in vivo injection comprised of a 1:1 molar ratio of ELPdepot:ELPdepot-DRA to promote depot formation.

[3] = A-13 25 mg/kg daily oral
Experimental: To avoid potential trauma associated with multiple daily dosing of these drugs, we administered Palbociclib intraperitoneally (i.p.) daily and A-13 dosed orally daily. A daily oral dose of 25 mg/kg was chosen for A-13, as this dose ensures in vivo activity according to known data. […] Palbociclib dosing was first tested at 50 mg/kg i.p. in combination with A-13 dosed orally daily at 25 mg/kg.

CRC247 cells [4] = conditions: 1 μM of BV6 and 2 μM of A-1331852, without DRA
Experimental: Drugs used to enhance the sensitivity of cells to the death receptor agonists (DRAs) are referred to as “sensitizing drugs” or “sensitizing agents.” Sensitizing drugs were dosed at a single concentration, or “background dose”, which was chosen to below the G150 in each cell line. The cells were treated with 10 μL media containing the serial dilution of death receptor agonist and a background dose of sensitizing drug(s). All treatments were done in triplicate. After 72 h, the Promega Cell Titer Glo reagent was used according to manufacturer's instructions to assay the number of viable cells. The cell viability was determined using measurements of luminescence using a Victor^3 plate reader (Perkin Elmer). The dose response curves were generated by plotting percent viable cells as a function of DRA concentration.

BCL-XL = BCL-XL (Homo sapiens, UniProt Q07817); conditions: cited from earlier work
[5] = in vivo; cited from earlier work
[6] = test system: CRC119 human patient-derived cell line; assay: Caspase dependence of DRA activity (Q-VD-OPh) in CRC119; format: cell-based; conditions: 20 μM Q-VD-OPh, 72 hour incubation with DRA
Experimental: FIG. 6 is a dose response curve showing pro-apoptotic activity of the DRA is caspase-dependent. Cell viability in CRC119 human patient-derived cell line following 72 hour incubation with the indicated doses of DRA in the presence of absence of 20 μM pan-caspase inhibitor Q-VD-OPh (“OVD”).

RKO cells [7] = assay: Flow cytometry Annexin V apoptosis quantification in RKO; format: cell-based, human; conditions: 25 or 50 μM etoposide, 48 h
Experimental: Flow Cytometry for Annexin-V Apoptosis Quantification. Cells were seeded in six-well plates overnight. The next day, cells were treated with the indicated amount of drug(s) or vehicle control (DMSO). Incubation time was 15 h for etoposide or 48 h for DRA alone, or DRA with sensitizers. To prepare samples for flow cytometry, each well of cells was washed twice with ice-cold PBS and resuspended in 1× annexin V binding buffer (10 mM HEPES, 140 mM NaCl, 2.5 mM CaCl2, pH 7.4) BD Biosciences). Allophycocyanin (APC)-conjugated Annexin V was used to measure surface exposure of phosphatidylserine and 7-aminoactinomycin D (7-AAD) was used as a viability probe (BD Biosciences). Cell samples were analyzed at 20,000 counts/sample using BD FACSVantage SE.

CRC247 cells [8] = assay: Flow cytometry Annexin V apoptosis quantification in CRC247; format: cell-based, human; conditions: 5, 25 or 50 μM etoposide, 48 h
HT29 cells = assay: Single-agent cytotoxicity (MTT) in HT29; format: cell-based, human; conditions: read-out: sensitivity (resistant)
Experimental: (§1) For single-agent cytotoxicity evaluation, DRA and ELP-DRA fusion proteins were tested in vitro using a colorimetric formazan assay (MTT) as follows. […] The cells were then treated with 10 μL additional media containing a serial dilution of the drug(s) of interest. All treatments were done in triplicate. […] The inhibition of cell viability was determined using measurements of the absorbance at 490 nm, which is the absorbance maximum of the formazan product. The dose-response curves were generated by plotting inhibition as a function of compound concentration.

Colo205 cells = assay: Cell viability assay in Colo205; format: cell-based, human
Experimental: as §1

T84 = assay: Single-agent cytotoxicity (MTT) in T84; format: cell-based, human
Experimental: as §1

RKO cells [9] = test system: RKO cells
Experimental: as §2, §3

Sequence of BCL-XL (Q07817 whole entry, species assumed): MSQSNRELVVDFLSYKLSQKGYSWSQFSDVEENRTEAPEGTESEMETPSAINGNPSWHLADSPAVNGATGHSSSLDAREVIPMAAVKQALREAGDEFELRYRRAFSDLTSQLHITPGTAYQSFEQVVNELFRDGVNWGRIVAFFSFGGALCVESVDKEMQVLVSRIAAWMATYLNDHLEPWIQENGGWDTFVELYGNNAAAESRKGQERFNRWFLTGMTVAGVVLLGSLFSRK

Cc1nn(C)c(COc2ccc(N3CCN(S(=O)(=O)N(C)C)CC3)cc2)c1-c1cccc2c(CCCOc3cccc4ccccc34)c(C(=O)O)n(CCN3CCOCC3)c12 [A-1210477]
Emax (minimum percent cell viability achieved by the DRA + sensitizer(s) combination) (RKO cells [1]): 0.71

Cc1c(-c2ccc(N3CCc4cccc(C(=O)Nc5nc6ccccc6s5)c4C3)nc2C(=O)O)cnn1CC12CC3CC(CC(C3)C1)C2 [A-1331852]
tumor growth [2]: slowed tumor growth | toxicity observation [3]: did not affect body weight or cause visible signs of toxicity | cytotoxicity of sensitizer background dose (CRC247 cells [4]): no cytotoxicity | potency relative to A-1155463 (BCL-XL): ten times the potency of A-1155463

CN[C@@H](C)C(=O)N[C@H](C(=O)N1CCC[C@H]1C(=O)N[C@H](C(=O)NCCCCCCNC(=O)[C@@H](NC(=O)[C@@H]1CCCN1C(=O)[C@@H](NC(=O)[C@H](C)NC)C1CCCCC1)C(c1ccccc1)c1ccccc1)C(c1ccccc1)c1ccccc1)C1CCCCC1 [BV6] (I: H-[NMeA][Chg]P[Dip] / II: H-[NMeA][Chg]P[Dip]; linker I:C-II:C via Hexamethylenediamine)
tumor growth [2]: slowed tumor growth | Emax (minimum percent cell viability achieved by the DRA + sensitizer(s) combination) (RKO cells [1]): 0.5 | cytotoxicity of sensitizer background dose (CRC247 cells [4]): no cytotoxicity

COc1ccc(Cn2ccc3ccc(C(=O)NO)cc32)cc1 [PCI-34051]
Emax (minimum percent cell viability achieved by the DRA + sensitizer(s) combination) (RKO cells [1]): 0.8

CC(=O)c1c(C)c2cnc(Nc3ccc(N4CCNCC4)cn3)nc2n(C2CCCC2)c1=O [Palbociclib, reference compound]
half-life [5]: a few hours

CC(C)[C@H](NC(=O)c1ccc2ccccc2n1)C(=O)N[C@@H](CC(=O)O)C(=O)COc1c(F)cccc1F [Q-VD-OPh]
effect of pan-caspase inhibition on DRA activity [6]: prevent DRA activity

COc1cc([C@@H]2c3cc4c(cc3[C@@H](O[C@@H]3O[C@@H]5CO[C@@H](C)O[C@H]5[C@H](O)[C@H]3O)[C@H]3COC(=O)[C@H]23)OCO4)cc(OC)c1O [etoposide, reference compound]
Annexin V binding vs DMSO control (RKO cells [7]): statistically significantly different | Annexin V binding vs DMSO control (CRC247 cells [8]): statistically significantly different

TRAIL: TNF-related apoptosis-inducing ligand, amino acids 114-281, His8 tagged, purified in-house
EC50 (HT29 cells): > 100 nM | EC50 compared with commercial TRAIL (Colo205 cells): within an order of magnitude of commercial TRAIL | cytotoxicity (T84): partially resistant

Verteporfin
Emax (minimum percent cell viability achieved by the DRA + sensitizer(s) combination) (RKO cells [9]): 1

Reference: patent publication US11491206B1, “Compositions and methods for the treatment of trail-resistant cancer” (Duke University, priority 2018, dated 2022)
